Assay results from ChEMBL document CHEMBL4414672, “Synthesis of certain benzothieno[3,2-d]pyrimidine derivatives as a selective SIRT2 inhibitors” (Eur J Med Chem, 2020).

Columns and labels:
Type in all cases: functional
[1] = system: CCRF-CEM; assay: Growth inhibition of human CCRF-CEM cells at 10^-5 M incubated for 48 hrs by sulforhodamine B assay; settings: read-out: GI
[2] = system: MOLT-4; assay: Growth inhibition of human MOLT4 cells at 10^-5 M incubated for 48 hrs by sulforhodamine B assay; settings: MOLT-4, 48 h, read-out: GI
[3] = system: SR; assay: Growth inhibition of human SR cells at 10^-5 M incubated for 48 hrs by sulforhodamine B assay; settings: read-out: GI
[4] = system: A549; assay: Growth inhibition of human A549/ATCC cells at 10^-5 M incubated for 48 hrs by sulforhodamine B assay; settings: A549, 48 h, read-out: GI
[5] = system: EKVX; assay: Growth inhibition of human EKVX cells at 10^-5 M incubated for 48 hrs by sulforhodamine B assay; settings: read-out: GI
[6] = system: NCI-H226; assay: Growth inhibition of human NCI-H226 cells at 10^-5 M incubated for 48 hrs by sulforhodamine B assay; settings: NCI-H226, 48 h, read-out: GI
[7] = system: NCI-H322M; assay: Growth inhibition of human NCI-H322M cells at 10^-5 M incubated for 48 hrs by sulforhodamine B assay; settings: read-out: GI
[8] = system: NCI-H522; assay: Growth inhibition of human NCI-H522 cells at 10^-5 M incubated for 48 hrs by sulforhodamine B assay; settings: NCI-H522, 48 h, read-out: GI
[9] = system: COLO 205; assay: Growth inhibition of human COLO205 cells at 10^-5 M incubated for 48 hrs by sulforhodamine B assay; settings: COLO 205, 48 h, read-out: GI
[10] = system: HCC 2998; assay: Growth inhibition of human HCC2998 cells at 10^-5 M incubated for 48 hrs by sulforhodamine B assay; settings: HCC 2998, 48 h, read-out: GI
[11] = system: HCT-15; assay: Growth inhibition of human HCT15 cells at 10^-5 M incubated for 48 hrs by sulforhodamine B assay; settings: HCT-15, 48 h, read-out: GI
[12] = system: HT-29; assay: Growth inhibition of human HT-29 cells at 10^-5 M incubated for 48 hrs by sulforhodamine B assay; settings: HT-29, 48 h, read-out: GI
[13] = system: SW-620; assay: Growth inhibition of human SW620 cells at 10^-5 M incubated for 48 hrs by sulforhodamine B assay; settings: SW-620, 48 h, read-out: GI
[14] = system: SF-295; assay: Growth inhibition of human SF295 cells at 10^-5 M incubated for 48 hrs by sulforhodamine B assay; settings: SF-295, 48 h, read-out: GI
[15] = system: SF-539; assay: Growth inhibition of human SF539 cells at 10^-5 M incubated for 48 hrs by sulforhodamine B assay; settings: SF-539, 48 h, read-out: GI
[16] = system: SNB-19; assay: Growth inhibition of human SNB19 cells at 10^-5 M incubated for 48 hrs by sulforhodamine B assay; settings: SNB-19, 48 h, read-out: GI
[17] = system: SNB-75; assay: Growth inhibition of human SNB75 cells at 10^-5 M incubated for 48 hrs by sulforhodamine B assay; settings: SNB-75, 48 h, read-out: GI
[18] = system: LOX IMVI; assay: Growth inhibition of human LOXIMVI cells at 10^-5 M incubated for 48 hrs by sulforhodamine B assay; settings: read-out: GI
[19] = system: Malme-3M; assay: Growth inhibition of human MALME-3M cells at 10^-5 M incubated for 48 hrs by sulforhodamine B assay; settings: read-out: GI
[20] = system: MDA-MB-435; assay: Growth inhibition of human MDA-MB-435 cells at 10^-5 M incubated for 48 hrs by sulforhodamine B assay; settings: MDA-MB-435, 48 h, read-out: GI
[21] = system: SK-MEL-28; assay: Growth inhibition of human SK-MEL-28 cells at 10^-5 M incubated for 48 hrs by sulforhodamine B assay; settings: SK-MEL-28, 48 h, read-out: GI
[22] = system: UACC-257; assay: Growth inhibition of human UACC257 cells at 10^-5 M incubated for 48 hrs by sulforhodamine B assay; settings: UACC-257, 48 h, read-out: GI
[23] = system: UACC-62; assay: Growth inhibition of human UACC62 cells at 10^-5 M incubated for 48 hrs by sulforhodamine B assay; settings: UACC-62, 48 h, read-out: GI
[24] = system: IGROV-1; assay: Growth inhibition of human IGROV1 cells at 10^-5 M incubated for 48 hrs by sulforhodamine B assay; settings: IGROV-1, 48 h, read-out: GI
[25] = system: OVCAR-3; assay: Growth inhibition of human OVCAR3 cells at 10^-5 M incubated for 48 hrs by sulforhodamine B assay; settings: OVCAR-3, 48 h, read-out: GI
[26] = system: OVCAR-4; assay: Growth inhibition of human OVCAR4 cells at 10^-5 M incubated for 48 hrs by sulforhodamine B assay; settings: OVCAR-4, 48 h, read-out: GI
[27] = system: OVCAR-5; assay: Growth inhibition of human OVCAR5 cells at 10^-5 M incubated for 48 hrs by sulforhodamine B assay; settings: OVCAR-5, 48 h, read-out: GI
[28] = system: A498; assay: Growth inhibition of human A498 cells at 10^-5 M incubated for 48 hrs by sulforhodamine B assay; settings: A498, 48 h, read-out: GI
[29] = system: ACHN; assay: Growth inhibition of human ACHN cells at 10^-5 M incubated for 48 hrs by sulforhodamine B assay; settings: read-out: GI
[30] = system: CAKI-1; assay: Growth inhibition of human Caki1 cells at 10^-5 M incubated for 48 hrs by sulforhodamine B assay; settings: CAKI-1, 48 h, read-out: GI
[31] = system: SN12C; assay: Growth inhibition of human SN12C cells at 10^-5 M incubated for 48 hrs by sulforhodamine B assay; settings: read-out: GI
[32] = system: TK-10; assay: Growth inhibition of human TK10 cells at 10^-5 M incubated for 48 hrs by sulforhodamine B assay; settings: TK-10, 48 h, read-out: GI
[33] = system: PC-3; assay: Growth inhibition of human PC3 cells at 10^-5 M incubated for 48 hrs by sulforhodamine B assay; settings: PC-3, 48 h, read-out: GI
[34] = system: DU-145; assay: Growth inhibition of human DU145 cells at 10^-5 M incubated for 48 hrs by sulforhodamine B assay; settings: DU-145, 48 h, read-out: GI
[35] = system: MCF7; assay: Growth inhibition of human MCF7 cells at 10^-5 M incubated for 48 hrs by sulforhodamine B assay; settings: MCF7, 48 h, read-out: GI
[36] = system: Hs-578T; assay: Growth inhibition of human Hs 578T cells at 10^-5 M incubated for 48 hrs by sulforhodamine B assay; settings: read-out: GI
[37] = system: BT-549; assay: Growth inhibition of human BT549 cells at 10^-5 M incubated for 48 hrs by sulforhodamine B assay; settings: BT-549, 48 h, read-out: GI
[38] = system: T47D; assay: Growth inhibition of human T47D cells at 10^-5 M incubated for 48 hrs by sulforhodamine B assay; settings: read-out: GI
[39] = system: MDA-MB-468; assay: Growth inhibition of human MDA-MB-468 cells at 10^-5 M incubated for 48 hrs by sulforhodamine B assay; settings: MDA-MB-468, 48 h, read-out: GI

Compound O=[N+]([O-])c1cccc(C2c3sc4ccc(Cl)cc4c3N=C3NN=NN32)c1 (stereo not drawn) has an inhibition of growth at 10 µM [1] of -11.4%, an inhibition of growth at 10 µM [2] of -1.88% and an inhibition of growth at 10 µM [3] of -7.25%. For the same compound, the inhibition of growth at 10 µM [4] was 9.64%, the inhibition of growth at 10 µM [5] was 8.75% and the inhibition of growth at 10 µM [6] was 11.5%. The inhibition of growth at 10 µM [7] was -3.77%, the inhibition of growth at 10 µM [8] was -7.9% and the inhibition of growth at 10 µM [9] was -7.9%. The inhibition of growth at 10 µM [10] was 1.22%, the inhibition of growth at 10 µM [11] was -16% and the inhibition of growth at 10 µM [12] was -2.76%. The inhibition of growth at 10 µM [13] was -1.74%, the inhibition of growth at 10 µM [14] was 3.68% and the inhibition of growth at 10 µM [15] was -8.51%. It also gave an inhibition of growth at 10 µM [16] of 7.13%, an inhibition of growth at 10 µM [17] of -9.67% and an inhibition of growth at 10 µM [18] of -0.19%. For the same compound, the inhibition of growth at 10 µM [19] was -4.76%, the inhibition of growth at 10 µM [20] was 2.65% and the inhibition of growth at 10 µM [21] was 3.38%. The inhibition of growth at 10 µM [22] was 3.87%, the inhibition of growth at 10 µM [23] was 21.3% and the inhibition of growth at 10 µM [24] was -11.1%. It also gave an inhibition of growth at 10 µM [25] of -0.5%, an inhibition of growth at 10 µM [26] of -6.3% and an inhibition of growth at 10 µM [27] of -6.97%. For the same compound, the inhibition of growth at 10 µM [28] was 18.1%, the inhibition of growth at 10 µM [29] was -27.8% and the inhibition of growth at 10 µM [30] was -15.7%. The inhibition of growth at 10 µM [31] was 9.98%, the inhibition of growth at 10 µM [32] was 35.8% and the inhibition of growth at 10 µM [33] was -11.3%. It also gave an inhibition of growth at 10 µM [34] of 22%, an inhibition of growth at 10 µM [35] of 15.4% and an inhibition of growth at 10 µM [36] of -11.2%. The inhibition of growth at 10 µM [37] was 9.57%, the inhibition of growth at 10 µM [38] was -8.85% and the inhibition of growth at 10 µM [39] was -8.85%.

O=C1CC(=O)N(C2=Nc3c(sc4ccc(Cl)cc34)C(c3cccc([N+](=O)[O-])c3)N2)N1 (stereo not drawn) gave an inhibition of growth at 10 µM [1] of -32.1%, an inhibition of growth at 10 µM [2] of -4.64% and an inhibition of growth at 10 µM [3] of -3.11%. It also gave an inhibition of growth at 10 µM [4] of -4.87%, an inhibition of growth at 10 µM [5] of 21.9% and an inhibition of growth at 10 µM [6] of 19.4%. For the same compound, the inhibition of growth at 10 µM [7] was 2.7%, the inhibition of growth at 10 µM [8] was 9.63% and the inhibition of growth at 10 µM [9] was -8.39%. It also gave an inhibition of growth at 10 µM [10] of -8.39%, an inhibition of growth at 10 µM [11] of -3.4% and an inhibition of growth at 10 µM [12] of -6.83%. It also gave an inhibition of growth at 10 µM [13] of -6.45%, an inhibition of growth at 10 µM [14] of 0.3% and an inhibition of growth at 10 µM [15] of 4.39%. It also gave an inhibition of growth at 10 µM [16] of -9.31%, an inhibition of growth at 10 µM [17] of 8.27% and an inhibition of growth at 10 µM [18] of 2.94%. The inhibition of growth at 10 µM [19] was -4.33%, the inhibition of growth at 10 µM [20] was -10.2% and the inhibition of growth at 10 µM [21] was -19.8%. The inhibition of growth at 10 µM [22] was -8.39%, the inhibition of growth at 10 µM [23] was 8.04% and the inhibition of growth at 10 µM [24] was 20.8%. The inhibition of growth at 10 µM [25] was -6.5%, the inhibition of growth at 10 µM [26] was -11.5% and the inhibition of growth at 10 µM [27] was -2.6%. For the same compound, the inhibition of growth at 10 µM [28] was 6.96%, the inhibition of growth at 10 µM [29] was -11.9% and the inhibition of growth at 10 µM [30] was 10.9%. It also gave an inhibition of growth at 10 µM [31] of 18.3%, an inhibition of growth at 10 µM [32] of -11.9% and an inhibition of growth at 10 µM [33] of 2.78%. For the same compound, the inhibition of growth at 10 µM [34] was -15.1%, the inhibition of growth at 10 µM [35] was 21.7% and the inhibition of growth at 10 µM [36] was 5.51%. It also gave an inhibition of growth at 10 µM [37] of -19.4%, an inhibition of growth at 10 µM [38] of 20.9% and an inhibition of growth at 10 µM [39] of -2.44%.
